Experimental findings from PubChem BioAssay (NCI) are described below.

What all share (assay): growth of human tumour cells (NCI), 48 h
The test system of test [1] is T-47D breast.
Test [2] deals with DU-145 prostate.
The subject of test [3] is SK-OV-3 ovarian.
The subject of test [4] is SNB-19 CNS.
In test [5] the test system is NCI-H460 lung.
In test [6] the test system is NCI-H23 lung.
Test [7] deals with BT-549 breast.
In test [8] the test system is OVCAR-4 ovarian.
Test [9] deals with NCI-H226 lung.
The test system of test [10] is MCF7 breast.
In test [11] the test system is MDA-MB-231 breast.
Test [12] has as its system COLO 205 colon.
For test [13], the system named is U251 CNS.
In test [14] the test system is A498 renal.
The subject of test [15] is UO-31 renal.
The test system of test [16] is SK-MEL-28 melanoma.
Test [17] relates to SR leukemia.
Test [18] concerns ACHN renal.
Test [19] concerns IGROV1 ovarian.
Test [20] relates to TK-10 renal.

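Following 48 hours of exposure in 96-well plates, responses at five concentrations were used to interpolate endpoints linearly. TGI is the concentration that stops growth completely.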 Bounds are passed on as bounds.

For `COC(=O)CC1C=CC(C)(OC)OO1` (stereo not given), the TGI in [1] was greater than 100 µM; in [2] it was greater than 100 µM; in test [3], greater than 100 µM; in [4], greater than 100 µM; in test [5], 24.4 µM; in [6], greater than 100 µM. Also, the TGI in test [7], in [8], in test [9], in test [10], in test [11] and in test [12] was greater than 100 µM in each case. Further, the TGI in test [13], in test [14], in [15], in test [16], in test [17] and in test [18] was greater than 100 µM throughout. In addition, the TGI in test [19] and in test [20] was greater than 100 µM in each case.
Consider `CC1CC[C@@]2(OC1)OC1C[C@H]3[C@@H]4CC[C@H]5CC(OC6OC(CO)C(O)C(OC7OC(CO)C(OC8OC(CO)C(O)C(OC9OC(CO)C(O)C(O)C9O)C8OC8OC(CO)C(O)C(O)C8O)C(O)C7O)C6O)[C@H](O)CC5(C)[C@H]4CCC3(C)C1[C@@H]2C` (stereo not given in full), for which the TGI is 4.58 µM in [1]; 12.1 µM in test [2]; 14.1 µM in [3]; 9.47 µM in test [4]; 15.5 µM in test [5]; 12.7 µM in test [6]. In addition, the TGI in test [7] is 10.5 µM; in test [8], 9.55 µM; in test [9] it was 13.3 µM; in [10], 5.43 µM; in [11], 5.87 µM; in [12] it was 6.04 µM. In addition, the TGI in test [13] amounted to 9.43 µM; in test [14] it was 3.16 µM; in test [15], 6.9 µM; in test [16], 14.5 µM; in [17], 2.98 µM; in test [18], 7.4 µM. The TGI was 4.59 µM in test [19] and 11.8 µM in test [20].
With `CN1C(=O)c2ccccc2OC12C=Cc1ccc(O)cc1O2` (stereo not given), the TGI is 52.6 µM in test [1]; 69.7 µM in [2]; 53.5 µM in [3]; greater than 100 µM in test [4]; 61.8 µM in test [5]; greater than 100 µM in test [6]. Further, the TGI in test [7] was 85.5 µM; in [8], 96.9 µM; in test [9] it was 92.8 µM; in test [10], greater than 100 µM; in [11], 82.1 µM; in [12], 65.1 µM. The TGI in test [13] is greater than 100 µM; in [14] it was 53.4 µM; in test [15], 57.7 µM; in test [16], greater than 100 µM; in [17], 27.4 µM; in test [18], greater than 100 µM. Also, the TGI in test [19] and in [20] was greater than 100 µM each time.
On to `CN(C)CC1CCC/C(=C\c2ccc(Cl)cc2)C1=O` (stereo not given), for which the TGI in test [1] is 13.4 µM; in test [2], 29.1 µM; in test [3], 23.2 µM; in test [4], 26.5 µM; in test [5] it was 43.3 µM; in [6], 22.5 µM. Besides, the TGI came to 3.45 µM in [7]; 8.94 µM in test [8]; 28.8 µM in test [9]; 3.38 µM in test [10]; 9.21 µM in test [11]; 4.82 µM in [12]. The TGI in test [13] was 9.08 µM; in test [14], 31.1 µM; in test [15], 4.52 µM; in [16], 9.04 µM; in [17], greater than 100 µM; in test [18] it was 7.04 µM. Besides, the TGI in test [19] came out at 8.62 µM; in test [20] it was 10 µM.
With `COC(=O)C1=C(C(=O)Nc2cccnc2Cl)N(c2ccc(OC)cc2[N+](=O)[O-])C(c2ccc(C)cc2)=CC1c1ccc(OC)cc1OC` (stereo not given), the TGI in test [1] is 88.3 µM; in test [2] it was greater than 90.1 µM; in test [3], 62.9 µM; in [4] it was greater than 88.6 µM; in test [5], greater than 79.3 µM; in test [6], greater than 85 µM. Also, the TGI in [7] was greater than 100 µM; in test [8] it was greater than 100 µM; in test [9], 38.1 µM; in test [10], 22.4 µM; in [11], 62.1 µM; in test [12], 31.9 µM. Besides, the TGI was 40.3 µM in test [13]; 50.6 µM in test [14]; greater than 76.2 µM in [15]; greater than 100 µM in test [16]; 21.6 µM in [17]; greater than 81.6 µM in [18]. For the same compound, the TGI in test [19] is 33.7 µM; in [20] it was greater than 64.2 µM.
As for `Cn1c(=O)oc2cc(C(O)CN3CCN(Cc4ccccn4)CC3)c(Cl)cc21` (stereo not given), the TGI in [1], in test [2], in test [3], in test [4], in test [5] and in test [6] was greater than 100 µM in each case. Further, the TGI in [7], in test [8], in [9], in test [10], in [11] and in [12] was greater than 100 µM in each case. The TGI in test [13], in test [14], in [15], in test [16], in test [17] and in test [18] was greater than 100 µM throughout. Besides, the TGI in [19] and in test [20] was greater than 100 µM each time.
